Results published in patent US20220175761A1, “BI-LIGAND DRUG CONJUGATE AND USE THEREOF” (COHERENT BIOPHARMA (SUZHOU), LIMITED, priority 2019, published 2022).
pIC50: −log10 of the molar value. Square brackets hold non-standard residues; d marks the D form. Peptide text beside a SMILES is read from it. * marks the point of attachment. Dolaproine = CO[C@@H]([C@@H]1CCCN1)[C@@H](C)C(=O)O; Dil = CC[C@H](C)[C@H](NC)[C@@H](CC(=O)O)OC; X1 = C[C@@H](N*)[C@@H](O)c1ccccc1; NMeV = CN[C@H](C(=O)O)C(C)C

Key:
FOLH1 = FOLH1 (Homo sapiens, UniProt Q04609); assay: Gator binding affinity to FOLH1 (SA probe with Biotin-CB-20BK, analyte FOLH1); parameters: purchased Sino Biologicals 15877-H07H
FOLH1, sequence (Q04609 44-750 limits assumed): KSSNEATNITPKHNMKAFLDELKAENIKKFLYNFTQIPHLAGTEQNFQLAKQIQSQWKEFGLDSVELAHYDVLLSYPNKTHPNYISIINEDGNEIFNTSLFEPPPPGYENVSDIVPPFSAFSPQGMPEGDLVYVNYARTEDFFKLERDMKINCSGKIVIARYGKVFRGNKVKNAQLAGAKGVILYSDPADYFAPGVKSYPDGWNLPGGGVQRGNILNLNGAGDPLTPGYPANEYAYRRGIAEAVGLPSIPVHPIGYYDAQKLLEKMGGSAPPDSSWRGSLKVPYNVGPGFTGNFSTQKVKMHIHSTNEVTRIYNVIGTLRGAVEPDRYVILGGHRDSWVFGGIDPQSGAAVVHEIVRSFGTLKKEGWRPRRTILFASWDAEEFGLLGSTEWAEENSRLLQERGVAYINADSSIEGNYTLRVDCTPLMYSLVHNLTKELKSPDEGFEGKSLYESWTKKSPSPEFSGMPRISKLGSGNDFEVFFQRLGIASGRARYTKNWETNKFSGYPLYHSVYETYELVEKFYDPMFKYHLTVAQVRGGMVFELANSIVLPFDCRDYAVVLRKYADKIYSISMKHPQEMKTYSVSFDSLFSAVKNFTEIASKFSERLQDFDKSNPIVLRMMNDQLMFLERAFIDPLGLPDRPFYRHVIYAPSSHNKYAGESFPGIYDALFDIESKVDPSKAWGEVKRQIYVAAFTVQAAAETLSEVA
Description: SA probe (Probe Life, Cat #: 1906018)
Buffer: Q buffer (Probe Life), 10 mM, pH=7.4
(2) The experiment was carried out according to Gator™ (Probe Life) instruction manual to determine the binding affinity of Biotin-CB-20BK to FOLH1. In the experiment, SA probe binds to ligand Biotin-CB-20BK, and the analyte is FOLH1 (Sino Biologicals, Cat #: 15877-H07H).

LU0367 = assay: Tumor growth inhibition in HuPrime xenograft lung cancer PDX model; format: in vivo, BALB/c-nude mice; settings: 3 mg/kg, tail vein
Description: (§1) Experimental scheme: The tumor tissue mass were prepared and subcutaneously inoculated into the anterior right flank of BALB/c-nude mice. When the tumor volume expanded to 80-160 mm^3, a randomized grouping was performed, and a model control group and administration groups were set. The mice were administrated from the first day of grouping, wherein the administration dose was adjusted according to the latest weight measurement. The mice were administrated via tail vein injection at an administration volume of 10 μl/g and an administration dosage of 3 mg/kg. After grouping and administration, the effects of tumor growth and treatment on normal behaviors of animals, specifically including the activity of experimental animals, food intake and drinking status, weight gain or loss status, and other abnormal conditions in eyes, hair, etc., were monitored. After grouping and administration, the weight of mice was measured twice a week to calculate the rate of weight change; at the same time, the long diameter and short diameter of the tumor were measured with a vernier caliper, and the tumor volume, relative tumor proliferation rate, tumor volume inhibition rate and other indicators were calculated. The formula of tumor volume is TV=0.5 a×b^2, wherein a is the long diameter of a tumor and b is the short diameter of a tumor.

LU1380 = assay: as above; format: in vivo, BALB/c-nude mice; settings: 3 mg/kg, tail vein
Description: as §1

LU1206 = assay: as above; format: in vivo, BALB/c-nude mice; settings: 3 mg/kg, tail vein
Description: as §1

LNCaP = assay: Pharmacodynamic study 2 in CDX model; format: in vivo, BALB/c-nude mice; settings: 3 mg/kg D1, 8, 15, tail vein
Description: Experiment purpose: to perform a pharmacodynamic study of conjugate compound CB-20BK in a subcutaneous xenograft model (CDX) of humanized LNCaP, DU145 and NCI-H460 cell lines
The cells or tumor tissue mass were prepared and subcutaneously inoculated into the anterior right flank of BALB/c-nude mice. When the tumor volume expanded to 80-160 mm^3, a randomized grouping was performed, and a model control group and administration groups were set. The mice were administrated from the first day of grouping, wherein the administration dose was adjusted according to the latest weight measurement. The mice were administrated via tail vein injection at an administration volume of 10 μl/g. After grouping and administration, the effects of tumor growth and treatment on normal behaviors of animals, specifically including the activity of experimental animals, food intake and drinking status, weight gain or loss status, and other abnormal conditions in eyes, hair, etc., were monitored. After grouping and administration, the weight of mice was measured twice a week to calculate the rate of weight change; at the same time, the long diameter and short diameter of the tumor were measured with a vernier caliper, and the tumor volume, relative tumor proliferation rate, tumor volume inhibition rate and other indicators were calculated. […]

BR0438 = assay: Tumor growth inhibition in HuPrime xenograft breast cancer PDX model; format: in vivo, BALB/c-nude mice; settings: 3 mg/kg, tail vein
Description: as §1

BR1283 = assay: as above; format: in vivo, BALB/c-nude mice; settings: 3 mg/kg, tail vein
Description: as §1

[1] = system: SK-BR-3 (human breast cancer cells); assay: Inhibition of cell line proliferation, CCK8; format: cell-based; settings: SK-BR-3, 68-72 hours, CCK8
Description: Experimental operations: LNCaP, SK-BR-3, NCI-H226, CFPAC-1 and PANC-1 cells were prepared in advance and counted; with a culture medium (IMDM+10% FBS+1× L-Glutamine+1×P/S), the cells LNCaP, SK-BR-3 and CFPAC-1 were diluted to 4×10^4 cells/ml, NCI-H226 was diluted to 2.0×10^4 cells/ml and PANC-1 was diluted to 3.0×10^4 cells/ml; the diluted cell solution was plated in 96-well plates at 100 μl/well; and negative control and blank control wells were set on each plate. After adherent cell culture overnight, the diluted samples to be tested were added at 50 μl/well. The plates were placed in an incubator at 37° C., 5% CO2 and cultured for 68-72 hours. To each well, 15 μl (10% of the liquid volume in a well) of a color developing solution from CCK8 was added; and the plates were incubated at 37° C. for 45-70 minutes and each plate was read at 450 nm on a microplate reader. The data was edited using SoftMax Pro and a 4-P fitting curve was plotted.
Experimental Operations: LNCaP, SK-BR-3, MDA-MB-468 and CFPAC-1 cells were prepared in advance and counted; with a culture medium (IMDM+10% FBS+1× L-Glutamine+1×P/S), the cells LNCaP, SK-BR-3, MDA-MB-468 and CFPAC-1 were diluted to 4×10^4 cells/ml; the diluted cell solution was plated in 96-well plates at 100 µl/well; and negative control and blank control wells were set on each plate. After adherent cell culture overnight, the diluted samples to be tested were added at 50 μl/well. The plates were placed in an incubator at 37° C., 5% CO2 and cultured for 68-72 hours. To each well, 15 μl (10% of the liquid volume in a well) of a color developing solution from CCK8 was added; and the plates were incubated at 37° C. for 45-70 minutes and each plate was read at 450 nm on a microplate reader. The data was edited using SoftMax Pro and a 4-P fitting curve was plotted.

Row | Compound | binding to FOLH1 (in words) (FOLH1) | TGI (LU0367) | TGI (LU1380) | TGI (LU1206) | Tumor growth inhibition rate (TGI) (LNCaP) | TGI (BR0438) | TGI (BR1283) | pIC50 [1]
1 | CC[C@H](C)[C@@H]([C@@H](CC(=O)N1CCC[C@H]1[C@H](OC)[C@@H](C)C(=O)N[C@H](C)[C@@H](O)c1ccccc1)OC)N(C)C(=O)[C@@H](NC(=O)[C@H](C(C)C)N(C)C(=O)OCc1ccc(NC(=O)C(CCCNC(N)=O)NC(=O)[C@@H](NC(=O)CCCCCN2C(=O)CC(SC[C@H](NC(=O)[C@H](CCCCN)NC(=O)[C@H](CC(=O)O)NC(=O)[C@H](CC(=O)O)NC(=O)Cc3ccc(CNC(=O)NCCCC[C@H](NC(=O)N[C@@H](CCC(=O)O)C(=O)O)C(=O)O)cc3)C(=O)N[C@@H](CCCCNC(=O)CC[C@H](NC(=O)c3ccc(NCc4cnc5[nH]c(N)nc(=O)c5n4)cc3)C(=O)O)C(N)=O)C2=O)C(C)C)cc1)C(C)C (some centres unmarked) [CB-20BK] | binds to FOLH1 with a good affinity | 71.34% | 30.02% | 90.89% | 95.68% | 70.74% | 96.49% | –
2 | CC[C@H](C)[C@@H]([C@@H](CC(=O)N1CCC[C@H]1[C@H](OC)[C@@H](C)C(=O)N[C@H](C)[C@@H](O)c1ccccc1)OC)N(C)C(=O)[C@@H](NC(=O)[C@@H](NC)C(C)C)C(C)C [MMAE, monomethyl auristatin E] (H-[NMeV]V[Dil][Dolaproine]-X1) | – | – | – | – | – | – | – | 8.70
